This note sets out measurements from PubChem BioAssay AID1189 (EPA DSSTox, 2008).

Activity calls are given as the source filed them.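 Rule for the calls: active = a tumor-causing dose value with its tumor site reported for any sex and species group of a rodent or other animal cancer study; inconclusive = only studies judged inadequate by the national testing program; inactive = tested in at least one study, none positive.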

The nature of this series: DSSTox (CPDBAS) Carcinogenic Potency Database Summary SingleCellCall Results. The conditions noted are these: animal chronic carcinogenicity bioassays, CPDB summary call. Put shortly:
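Literature-derived summary: each substance receives an overall carcinogenic/non-carcinogenic category drawn from long-term bioassays in rats, mice, hamsters, dogs or primates, using the most positive sex-species experiment and minimal evidence criteria.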
Take `C1CNCCN1`: the result was inactive.
The result for `O=NN(CCCC(F)(F)F)CCCC(F)(F)F` reads “active”.
As to `ClCC(Cl)(Cl)Cl`, the outcome was “active; inactive”.
For the compound `CN1[C@@H]2CC(OC(=O)[C@@H](CO)c3ccccc3)C[C@H]1[C@@H]1O[C@@H]12` (some centres undefined), the outcome was inactive.
Under `O=NN1CCCC1` stands “active; inactive”.
The result for `CC1CO1` (centres undefined) reads “active”.
Take `O=C(Nc1ccc2c(c1)Cc1ccccc1-2)C(F)(F)F`: the result was active.
Under `CCCCCCCCCCCC[N+](C)(C)[O-]` stands “inactive”; under `C=CC(O)c1ccc(OC)cc1` (centres undefined), “active”.
The result for `NC(=O)c1ccncc1` reads “inactive”; that for `CC[C@H](C)C(=O)O[C@H]1C[C@@H](C)C=C2C=C[C@H](C)[C@H](CC[C@@H]3C[C@@H](O)CC(=O)O3)[C@H]21`, “active; inactive”.
Under `ClC1C2(Cl)C3C4C5OC5C5C4C1(Cl)C(Cl)(C53)C2(Cl)Cl` (centres undefined) stands “inactive”; under `Nc1ccccc1-c1ccccc1`, “active; inactive”.
Turning to `c1ccc(N=Nc2ccccc2)cc1`, the outcome was active.
Consider `CCSC[C@H](N)C(=O)O`, for which the outcome was inactive.
In the case of `O=S1(=O)N=C(O)c2ccccc21`, the outcome was inactive.
Under `CCCCN(N)CCCC` stands “active”.
`CC(C)(C)c1cc(C(C)(C)C)c(O)c(C(C)(C)C)c1`: the result was inactive.
Under `C=CN1CCCC1=O` stands “active; inactive”; under `CN(N=O)c1cccnc1`, “inactive”.
The result for `ClCCCl` reads “active”; that for `OCC(O)CCl` (centres undefined), “inactive”; that for `CC(C)O`, “inactive”.
The result for `CC(C)(Oc1ccc(C2CC2(Cl)Cl)cc1)C(=O)O` (centres undefined) reads “active”; that for `CC(=O)CN(N=O)C(=O)NCCCl`, “active”; that for `N#CS`, “inactive”.
Consider `O=NN1CCN(N=O)CC1`, for which the outcome was “active; inactive”.
The result for `[N]=O` reads “inactive”; that for `ClC1=C(Cl)[C@]2(Cl)[C@@H]3[C@@H]4C[C@@H]([C@H]5O[C@@H]45)[C@@H]3[C@@]1(Cl)C2(Cl)Cl`, “active”; that for `OCC1CO1` (centres undefined), “active”.
The result for `Nc1ccc(O)c([N+](=O)[O-])c1` reads “active”; that for `CN(N=O)c1ccc(/C=C/c2ccnc3ccccc23)cc1`, “active”.
The result for `C=CCN(N)CC=C` reads “active”; that for `COc1ccc(O)cc1`, “active”; that for `Cc1cnc2ccc3c(nc(N)n3C)c2n1`, “active”.
Turning to `CN(C)c1ccc(C(=C2C=CC(=[N+](C)C)C=C2)c2ccc(N(C)C)cc2)cc1`, the outcome was “active; inactive”.
The result for `CCOP(=O)(CC1CO1)OCC` (centres undefined) reads “inactive”.
As to `CC(C)(C)O`, the outcome is “active; inactive”.
The result for `O=C(O)c1cc(N=Nc2ccc(S(=O)(=O)Nc3ccccn3)cc2)ccc1O` reads “active”.
Regarding `Oc1ccccc1-c1ccccc1`, the outcome was active.
The result for `Clc1ccc2c(c1)C(c1ccccc1)=NCc1nncn1-2` reads “inactive; active”.
The result for `O=C(O)c1cc(O)c(O)c(O)c1` reads “inactive”; that for `FCCl`, “active”.
With `C1OC1C1CO1` (centres undefined), the outcome was inactive.
Under `CCN(CC)C(=O)/C(Cl)=C(\C)OP(=O)(OC)OC` stands “inactive”; under `CC(C)NCC(O)COc1ccc(CC(N)=O)cc1` (centres undefined), “inactive; active”; under `O=c1c(CO)c/c(=N/Nc2ccc(S(=O)(=O)O)c3ccccc23)c(=O)/c1=N/Nc1ccc(S(=O)(=O)O)c2ccccc12`, “inactive”.
Regarding `CCN(C=O)CC`, the outcome was “inactive; active”.
Under `CC(Cc1ccccc1)NN` (centres undefined) stands “inactive”; under `ClC1=C(Cl)[C@@]2(Cl)[C@@H]3[C@@H](Cl)[C@H](Cl)C[C@@H]3C1(Cl)C2(Cl)Cl`, “active”; under `Nc1ncc([N+](=O)[O-])s1`, “active”.
Under `C[C@@H]1C[C@H](C)CN(S(=O)(=O)c2ccc(Cl)c(C(=O)O)c2)C1` stands “active”; under `CCc1nc(N)nc(N)c1-c1ccc(Cl)cc1`, “inactive”; under `O=[N+]([O-])c1cc(N(CCO)CCO)ccc1NCCO`, “inactive”.
Take `CC[C@H]1OC(=O)[C@H](C)[C@@H](O[C@H]2C[C@@](C)(OC)[C@@H](O)[C@H](C)O2)[C@H](C)[C@@H](O[C@@H]2O[C@H](C)C[C@H](N(C)C)[C@H]2O)[C@](C)(O)C[C@@H](C)C(=O)[C@H](C)[C@@H](O)[C@]1(C)O`: the outcome is “inactive; active”.
Under `CC(=O)C1C(=O)C=C(C)OC1=O` (centres undefined) stands “inactive; active”; under `Nc1nc(N)c2nc(-c3ccccc3)c(N)nc2n1`, “active; inactive”; under `CCOP(=S)(OCC)Oc1cc(C)nc(C(C)C)n1`, “inactive; active”.
The result for `O=C1C2CC=CCC2C(=O)N1SC(Cl)(Cl)Cl` (centres undefined) reads “active”; that for `CCCNN`, “active”; that for `COc1ccc(C(=O)Nc2c(Cl)cncc2Cl)cc1OC1CCCC1`, “active”.
Under `O=NO` stands “active”; under `COc1ccc(OC)c(/C=C/c2ccc(N)cc2)c1`, “active”; under `CN1C(C(=O)Nc2ccccn2)=C(O)c2ccccc2S1(=O)=O`, “inactive”.
`O=[N+]([O-])c1ccc(-c2nc(N3CCOCC3)c3ccccc3n2)s1`: the result was active.
Consider `O=[N+]([O-])c1ccc(-c2nc(N(CCO)CCO)c3ccccc3n2)s1`, for which the outcome was “active; inactive”.
The result for `CCOC(=O)C1OC1(C)c1ccccc1` (centres undefined) reads “inactive”.
On to `O=C(O)C(Cl)(Cl)Cl`, for which the result was active.
Under `O=C1C(Cl)=C(Cl)C(=O)c2ccccc21` stands “inactive”.
Take `O=CNNc1nc(-c2ccco2)cs1`: the outcome was inactive.
The result for `CN(N=O)C(=O)c1ccccc1` reads “active; inactive”; that for `CC1=C[C@H]2O[C@@H]3[C@H](O)C[C@@](C)(C34CO4)[C@@]2(CO)[C@H](O)C1=O` (some centres undefined), “inactive; active”.
The result for `CN[C@H]1CCc2cc(OC)c(OC)c(OC)c2-c2ccc(OC)c(=O)cc21` reads “inactive”; that for `O=S(=O)(c1ccc(Cl)cc1)c1ccc(Cl)cc1`, “inactive; active”; that for `CC(C)C=O`, “inactive”.
Under `CC[N+]([O-])=NC` stands “active”; under `COP(=O)(OC)C(O)C(Cl)(Cl)Cl` (centres undefined), “inactive”.
Regarding `CC/C(C)=N/O`, the outcome was “active; inactive”.
`O=C1c2cccc(O)c2C(=O)c2c(O)cccc21`: the outcome was active.
The result for `CCCCOC(=O)c1ccc(O)cc1` reads “inactive; active”; that for `O=c1cc[nH]c(=S)[nH]1`, “active; inactive”.
Take `Nc1ccc(N)cc1`: the outcome was inactive.
For `CCCCCCCCCCCCC(=O)COC1=C(O)C(=O)O[C@@H]1[C@@H](O)CO`, the outcome was inactive.
The result for `OCCN(CCO)CCO` reads “active; inactive”; that for `Clc1cc(Cl)cc(-c2cc(Cl)cc(Cl)c2)c1`, “inactive”.
The result for `Oc1c(Cl)cc(Cl)c(Cl)c1Cc1c(O)c(Cl)cc(Cl)c1Cl` reads “inactive”; that for `C=CCc1ccc(OC)c(OC)c1`, “active; inactive”; that for `N#[N+]c1cc(CCN)ccc1[O-]`, “active”.
Under `CC(=O)Nc1ccc(OCC(O)CNC(C)C)cc1` (centres undefined) stands “inactive”; under `NC(Cc1c[nH]c2ccccc12)C(=O)O` (centres undefined), “inactive”.
On to `O=C1CCN([C@@H]2O[C@H](CO)[C@@H](O)[C@H]2O)C(=O)N1`, for which the outcome was inactive.
Under `CCCCNC(=O)N(CCCC)N=O` stands “active”; under `O=[N+]([O-])c1ccc(-c2cnc3ccccn23)o1`, “active”; under `Oc1ccc(OCc2ccccc2)cc1`, “inactive; active”.
In the case of `O=C(O)c1ccc([N+](=O)[O-])cc1`, the outcome was active.
The result for `Clc1cccc(-c2ccc(Cl)c(Cl)c2Cl)c1Cl` reads “active”; that for `ON=C1CCCC1`, “active; inactive”.
For `CCCCOC(=O)c1ccccc1C(=O)OCc1ccccc1`, the outcome was active.
Consider `CCNc1nc(Cl)nc(NC(C)(C)C#N)n1`, for which the result was active.
Under `Nc1nc(-c2ccc([N+](=O)[O-])cc2)cs1` stands “active”; under `CC(C)[N+](=O)[O-]`, “inactive; active”; under `O=C(O)c1ccccc1-c1c2cc(I)c(=O)c(I)c-2oc2c(I)c(O)c(I)cc12`, “inactive”.
The result for `CN(C)c1ccc(Cc2ccc(N(C)C)cc2)cc1` reads “active”.
Take `Nc1nc(N)nc(-c2cc(Cl)ccc2Cl)n1`: the outcome was inactive.
Under `O=NN1CCNCC1` stands “active; inactive”; under `O=c1ccc2ccccc2o1`, “active; inactive”.
Under `COC(=O)[C@H]1[C@H]2C[C@@H]3c4[nH]c5ccccc5c4CCN3C[C@H]2C[C@@H](OC(=O)c2cc(OC)c(OC)c(OC)c2)[C@@H]1OC` stands “inactive”.
The result for `C1COCCO1` reads “active; inactive”.
With `O=[N+]([O-])c1ccc2ccc3cccc4ccc1c2c34`, the result was active.
For the compound `S=c1[nH]c2ccccc2s1`, the result was active.
In the case of `C=O`, the result was active.
With `Nc1ccc(N)c(Cl)c1`, the result was inactive.
The result for `CN(C)CCOC(c1ccccc1)c1ccccc1` reads “inactive”.
Under `Nc1nc(N)nc(-c2ccccc2)n1` stands “inactive; active”.
